Assay results published in the supplement of paper PMC4862054.
Values joined by “and” are separate entries in the source; they are usually repeats but may differ in a detail not shown here. Equal entries are not always repeated.

Tests used:
CAL-148 [1] = conditions: 72 h
Procedure: (§1)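 Drug sensitivity and resistance testing (DSRT) of breast cancer cell lines in 384-well plates, 5 concentrations in 10-fold dilutions over a compound-specific 10,000-fold range. After 72 h, cytotoxicity was read by CellTox Green fluorescence and viability by CellTiter-Glo luminescence (multiplexed), normalised to DMSO and benzethonium chloride controls. EC50 is the inflection point of the fitted dose-response curve (bottom asymptote free, so it can be relative for partial curves) and is censored at the highest tested concentration. Rows with DSS 0 (no meaningful response) were excluded.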

BT-474 = conditions: 72 h
Procedure: as §1

MDA-MB-468 [2] = conditions: 72 h
Procedure: as §1

MFM-223 [3] = conditions: 72 h
Procedure: as §1

HDQ-P1 [4] = conditions: 72 h
Procedure: as §1

MDA-MB-453 [5] = conditions: 72 h
Method in brief: (§2)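 Breast cancer cell lines in 20 µl suspension were seeded onto 384-well plates that already held compound dissolved in 5 µl medium and were incubated for 72 h. Viability was measured by adding 2.5 µl CellTiter-Blue for 2 h at 37 °C and reading fluorescence at 560/590 nm. Each plate was normalised to vehicle and a positive kill control and checked by Z'-factor. EC50 was taken from a fitted percent-inhibition dose-response curve, censored at the highest concentration, and rows with a drug sensitivity score of zero were removed.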

CAL-85-1 [6] = experiment: normalised viability (% of control), CellTiter-Blue; higher = more viable cells (about 100 = DMSO control); conditions: incubation time: 72 h
Procedure: (§3)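 DSRT, CellTiter-Blue viability, 72 h incubation. Signal is normalised to DMSO and benzethonium chloride controls. Value is the normalised response at dose 9.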

CAL-148 [7] = experiment: as above; conditions: incubation time: 72 h
Procedure: as §3

MDA-MB-453 [8] = experiment: as above; conditions: incubation time: 72 h
Procedure: as §3

DU-4475 [9] = experiment: as above; conditions: incubation time: 72 h
Procedure: as §3

CAL-51 [10] = experiment: as above; conditions: incubation time: 72 h
Procedure: as §3

HDQ-P1 [11] = experiment: as above; conditions: incubation time: 72 h
Procedure: as §3

CAL-85-1 [12] = conditions: 72 h
Procedure: as §1

SK-BR-3 = conditions: 72 h
Method in brief: as §2

Hs578T [13] = conditions: 72 h
Procedure: as §1

CAL-148 [14] = conditions: 72 h; remark: listed apart in the source
Method in brief: as §2

HCC1599 = conditions: 72 h
Method in brief: as §2

BT-549 = conditions: 72 h
Method in brief: as §2

Hs578T [15] = conditions: 72 h; remark: listed apart in the source
Method in brief: as §2

MDA-MB-468 [16] = conditions: 72 h; remark: listed apart in the source
Method in brief: as §2

HCC1143 = conditions: 72 h
Method in brief: as §2

MFM-223 [17] = conditions: 72 h; remark: listed apart in the source
Method in brief: as §2

HCC1937 [18] = conditions: 72 h
Method in brief: as §2

CAL-120 = conditions: 72 h
Method in brief: as §2

HCC1937 [19] = conditions: 72 h; remark: listed apart in the source
Procedure: as §1

CAL-85-1 [20] = conditions: 72 h; remark: listed apart in the source
Method in brief: as §2

DU-4475 [21] = conditions: 72 h
Method in brief: as §2

CAL-51 [22] = conditions: 72 h
Method in brief: as §2

HDQ-P1 [23] = conditions: 72 h; remark: listed apart in the source
Method in brief: as §2

MDA-MB-436 = conditions: 72 h
Method in brief: as §2

MDA-MB-453 [24] = conditions: 72 h; remark: listed apart in the source
Procedure: as §1

SMILES | normalised viability (CAL-85-1 [6]) | normalised viability (CAL-148 [7]) | normalised viability (MDA-MB-453 [8]) | normalised viability (DU-4475 [9]) | normalised viability (CAL-51 [10]) | normalised viability (HDQ-P1 [11]) | also measured
CC(C)NC[C@@H](C(=O)N1CCN(c2ncnc3c2[C@H](C)C[C@H]3O)CC1)c1ccc(Cl)cc1 [GDC-0068] |  |  |  |  |  |  | EC50, CellTox Green (CAL-148 [1]): 221 nM; EC50, CellTox Green (BT-474): 5810 nM; EC50, CellTox Green (MDA-MB-468 [2]): 2640 nM; EC50, CellTox Green (MFM-223 [3]): 1330 nM; EC50, CellTox Green (HDQ-P1 [4]): > 10000 nM
C[C@@H]1C[C@H]2[C@@H]3CCC4=CC(=O)C=C[C@]4(C)[C@@]3(F)[C@@H](O)C[C@]2(C)[C@@]1(O)C(=O)CO [Dexamethasone] |  |  |  |  |  |  | EC50, CellTiter-Blue viability (MDA-MB-453 [5]): 15.7 nM
CO[C@H](C(=O)[C@@H](O)[C@@H](C)O)[C@@H]1Cc2cc3cc(O[C@H]4C[C@@H](O[C@@H]5C[C@@H](O)[C@H](O)[C@@H](C)O5)[C@H](O)[C@@H](C)O4)c(C)c(O)c3c(O)c2C(=O)[C@H]1O[C@H]1C[C@@H](O[C@@H]2C[C@@H](O)[C@@H](O[C@@H]3C[C@](C)(O)[C@H](O)[C@@H](C)O3)[C@@H](C)O2)[C@H](O)[C@@H](C)O1 [Plicamycin] (10000 nM) | 4.34% and 2.26% | 7.52% and 8.68% | 6.38% and 4.39% | 2.44% and 0.15% | 3.24% and 3.4% | 22.3% and 16% | 
C[C@@H]1C[C@H]2[C@@H]3CCC4=CC(=O)C=C[C@]4(C)[C@@]3(F)[C@@H](O)C[C@]2(C)[C@@]1(O)C(=O)CO [Dexamethasone] (10000 nM) | 105% | 109% | 75.3% | 104% | 97.9% | 125% | 
NC(=O)NO [Hydroxyurea] (100000 nM) | 90% | 119% | 91.5% | 121% | 100% | 123% | 
Cc1cc2c(F)c(Oc3ncnn4cc(OC[C@@H](C)O)c(C)c34)ccc2[nH]1 [Brivanib] |  |  |  |  |  |  | EC50, CellTox Green (CAL-85-1 [12]): > 1000 nM
CCCCCOC(=O)Nc1nc(=O)n([C@@H]2O[C@H](C)[C@@H](O)[C@H]2O)cc1F [Capecitabine] |  |  |  |  |  |  | EC50, CellTiter-Blue viability (SK-BR-3): 9200 nM; EC50, CellTiter-Blue viability (MDA-MB-453 [5]): 7520 nM
Cn1nnc2c(C(N)=O)ncn2c1=O [Temozolomide] (10000 nM) | 107% | 116% | 100% | 116% | 87.8% | 31.3% | 
Cn1cc(C[C@@H](N)C(=O)O)c2ccccc21 [1-methyl-D-tryptophan] |  |  |  |  |  |  | EC50, CellTox Green (Hs578T [13]): > 5000 nM; EC50, CellTox Green (MDA-MB-468 [2]): > 5000 nM; EC50, CellTox Green (HDQ-P1 [4]): > 5000 nM
COc1cc2c(N3CCN(C(=O)Nc4ccc(OC(C)C)cc4)CC3)ncnc2cc1OCCCN1CCCCC1 [Tandutinib] |  |  |  |  |  |  | EC50, CellTiter-Blue viability (CAL-148 [14]): 605 nM
O=C(O)CC[C@H]1CC[C@@](c2cc(F)ccc2F)(S(=O)(=O)c2ccc(Cl)cc2)CC1 [MK-0752] |  |  |  |  |  |  | EC50, CellTiter-Blue viability (HCC1599): 70.2 nM
C[C@]12C=CC(=O)C=C1CC[C@@H]1[C@@H]2C(=O)C[C@@]2(C)[C@H]1CC[C@]2(O)C(=O)CO [Prednisone] (10000 nM) | 103% | 103% | 88% | 99.3% | 101% | 122% | 
CC[C@@H]1C(=O)N(C)c2cnc(Nc3ccc(C(=O)N[C@H]4CC[C@H](N5CCN(CC6CC6)CC5)CC4)cc3OC)nc2N1C(C)C [Volasertib] (1000 nM) | 61.5% | 31.4% | 30.7% | 35.1% | 7.23% | 87.8% | 
CN1CCN(c2nc(C3=C(c4c[nH]c5ccccc45)C(=O)NC3=O)c3ccccc3n2)CC1 [Sotrastaurin] (10000 nM) | 124% | 127% | 75.6% | 77.1% | 108% | 124% | 
COc1cc2c(Oc3ccc(NC(=O)C4(C(=O)Nc5ccc(F)cc5)CC4)cc3F)ccnc2cc1OCCCN1CCOCC1 [Foretinib] (1000 nM) | 66.8% | 25.8% | 51.8% | 29.4% | 24.8% | 45.4% | 
CO[C@H]1C[C@@H]2CC[C@@H](C)[C@@](O)(O2)C(=O)C(=O)N2CCCC[C@H]2C(=O)O[C@H]([C@H](C)C[C@@H]2CC[C@@H](O)[C@H](OC)C2)CC(=O)[C@H](C)/C=C(\C)[C@@H](O)[C@@H](OC)C(=O)[C@H](C)C[C@H](C)/C=C/C=C/C=C/1C [Sirolimus] |  |  |  |  |  |  | EC50, CellTiter-Blue viability (BT-549): 0.2 nM; EC50, CellTiter-Blue viability (HCC1599): 1.57 nM; EC50, CellTiter-Blue viability (SK-BR-3): 3.42 nM; EC50, CellTiter-Blue viability (Hs578T [15]): 0.14 nM; EC50, CellTiter-Blue viability (MDA-MB-468 [16]): 0.26 nM; EC50, CellTiter-Blue viability (HCC1143): 1.33 nM; EC50, CellTiter-Blue viability (MFM-223 [17]): 0.18 nM; EC50, CellTiter-Blue viability (HCC1937 [18]): 0.16 nM; EC50, CellTiter-Blue viability (CAL-120): 1.32 nM; EC50, CellTox Green (HCC1937 [19]): 98.7 nM; EC50, CellTiter-Blue viability (CAL-85-1 [20]): 0.46 nM; EC50, CellTiter-Blue viability (CAL-148 [14]): 1.13 nM; EC50, CellTiter-Blue viability (MDA-MB-453 [5]): 0.71 nM; EC50, CellTiter-Blue viability (DU-4475 [21]): 1.24 nM; EC50, CellTiter-Blue viability (CAL-51 [22]): 0.79 nM; EC50, CellTiter-Blue viability (HDQ-P1 [23]): 0.55 nM
CC/C(=C(\c1ccccc1)c1ccc(OCCN(C)C)cc1)c1ccccc1 [Tamoxifen] |  |  |  |  |  |  | EC50, CellTiter-Blue viability (MDA-MB-436): 7520 nM; EC50, CellTiter-Blue viability (BT-549): 3420 nM; EC50, CellTiter-Blue viability (MDA-MB-468 [16]): 4420 nM; EC50, CellTox Green (MDA-MB-453 [24]): 7240 nM; EC50, CellTox Green (HCC1937 [19]): 325 nM; EC50, CellTiter-Blue viability (MDA-MB-453 [5]): 5970 nM
Cc1c(N)nc([C@H](CC(N)=O)NC[C@H](N)C(N)=O)nc1C(=O)N[C@H](C(=O)N[C@H](C)[C@@H](O)[C@H](C)C(=O)N[C@H](C(=O)NCCc1nc(-c2nc(C(=O)NCCC[S+](C)C)cs2)cs1)[C@@H](C)O)[C@@H](OC1OC(CO)C(O)C(O)C1OC1OC(CO)C(O)C(OC(N)=O)C1O)c1cnc[nH]1 (stereo not given in full) [Bleomycin] (10000 nM) | 96.9% | 82.8% | 94.2% | 98.7% | 51.7% | 64.7% | 
